Where two headings read alike, the source gives them in different places.
Key:
[1] = type: physicochemical; conditions: for Stability RSD%: 0 h, 24 h and 48 h; for Stability of QC samples: RSD % less than 15%
Method: The selectivity was examined by detecting blank K-R nutrient solutions, which were useful only if no peaks appeared at the retention times of aconitine and digoxin. The inter-day and intra-day accuracies were evaluated by calculating the percent relative standard deviation (RSD %) of the concentration of the quality control (QC) samples on the same day or over three days. The matrix effect was determined by comparing the concentrations of samples with standard solution added into a blank K-R solution after extraction with QC samples. The extraction recovery was calculated by comparing the concentration of normally extracted samples with that of the QC samples. The stability was evaluated by calculating the RSD % of the concentration of the quality control (QC) samples at 0 h, 24 h and 48 h. The accuracy, matrix effect, extraction recovery and stability were all replicated by five QC samples at three levels. The LOD and LLOQ were the concentrations of QC samples with peak signal-to-noise ratios (S/N) of at least 3 and 10, respectively.

[2] = Solubility in tested solvents during sample processing; conditions: tested solvents: methanol, ethanol, acetonitrile, distilled water, DMSO
Method: Because there were numerous inorganic salts that were harmful to the mass spectrometer in the everted sac samples, dechloridation was the first consideration when we developed the processing method. We applied lyophilization as the first step for prolonging the resting period of the samples to avoid the decomposition of unstable components. […] Therefore, the second step consisted of dissolving aconitine in methanol. […] The third step consisted of centrifuging, and 5 μL of the supernatant liquid was injected into the UPLC/MS.

P-glycoprotein [3] = assay: Effect on the level of the P-gp substrate digoxin in rat gut sacs; type: in vitro ADME
Method: (§1) All of the rats were starved for 24 h before the experiments. The rats were sacrificed by decapitation, and the duodenum, jejunum, ileum and colon were immediately removed and placed in a 37°C K-R solution that was oxygenated (O2/CO2, 95%:5%). After washing in order with K-R solution at room temperature, the four intestinal segments were everted on a glass rod (3 mm in diameter) with one end of each clamped before filling with fresh oxygenated K-R solution. The intestines were then sealed with braided sutures. Each sac was placed in a 10 mL test tube that contained 8 mL of oxygenated drug-containing K-R solution at 37°C. Then, 0.1 mL of serosal fluid was collected at the appropriate time points, and an equal volume of K-R solution was added to the serosal side. Finally, the solution in the sacs was collected to accurately calculate the volume, and each sac was accurately weighed before and after being cut open. The area of each sac was measured. All of the samples were analyzed using the UPLC-MS method. After analysis, the amounts (ng/mm^2) of absorbed aconitine and digoxin were calculated. Each experiment was repeated five times, and the presented data represent the means ± S.D. This study was conducted in accordance with the internationally accepted principles for laboratory animal use and care as found in the European Community guidelines.
The flow rate was 0.3 mL/min.

everted rat gut sacs [4] = conditions: for ER(P2/P0): Papp with 6-gingerol / Papp alone; for ER(P1/P0): Papp with Rhizoma Zingiberis extract / Papp alone
Method: as §1
(§2) The analytical UPLC-MS system consisted of an Acquity Ultra Performance LC with a Xevo TQ mass spectrometer as the detector, and it was equipped with an electrospray source in the positive ion mode (Waters Co., USA). Separation was performed on a BEH Extend-C18 column (2.1*50 mm, 1.7 μm, Agilent Co., USA). The mobile phase was composed of methanol mixed with acetonitrile in equal volumes (A) and an aqueous solution of ammonium acetate at pH 10.5 (B). The gradient elution conditions were as follows: 0–1 min 10–43% A, 2–4.5 min 55–100% A, and 5–7 min 10% A. The flow rate was 0.3 mL/min. The column temperature was 35°C throughout the entire detection process. All of the samples were freeze-dried after being collected from the serosal side, and the residue was dissolved with 0.1 mL of the mobile phase (A) prior to injecting 5 μL of each sample into the UPLC system.
To study the effect of the Rhizoma Zingiberis extract on the concentration of aconitine in the rat gut sacs, the apparent […] coefficient (Papp) was calculated using the equation Papp = [V/(A·C0)]·dC/dt, where V represents the fluid volume in the serosal side, A represents the superficial area of the gut sac, and C0 represents the initial concentration of aconitine outside the gut sac.
The experiment described in this section was conducted under the same conditions as decribed in the “Effect of the Rhizoma Zingiberis extract on the level of aconitine in the rat gut sacs” section.

P-glycoprotein [5] = conditions: deduced from verapamil effect in rat gut sacs
Method: as §1

everted rat gut sacs [6] = type: in vitro ADME; conditions: 120 min
Method: as §1, §2
The intestinal kinetic absorptive behavior of aconitine was investigated in the gut sac model cultured in K-R nutrient solution for 120 min. The accumulative absorbed dose (Q) of aconitine was calculated for use in zero-level, primary and Higuchi equation fitting. Then, the determination coefficient (R^2) of the equation was set as the evaluation criterion for the quality of the fit. […] The slope of the fitting equation represents the absorption rate constant (ka).

P-glycoprotein [7] = tested on: P-glycoprotein; parameters: method as in earlier work; conditions: Caco-2 cell culture model; cited from earlier work
everted rat gut sacs [8] = assay: Viability of the everted rat gut sacs (serosal/mucosal glucose ratio); conditions: incubation up to 120 min; Fig 5
Method: To verify the integrity and viability of the gut sacs, glucose was collected from both the serosal side and the mucosal side of the rat gut sacs at a fixed time, and glucose was detected using a Waters UPLC/MS (Waters Co., USA), which is more accurate and sensitive than a UV-Vis detector. Separation was performed on a Hypersil NH column (4.6*150 mm, 25 μm, Elite Co., China). Although only glucose was available for detection in this part, the column separation was essential because large amounts of inorganic salts were present in the K-R nutrient solution. A mobile phase composed of 80% acetonitrile (A) and 20% distilled water (B) was used for isocratic elution. The retention time for glucose was 7.37 min. The peak area ratio of glucose in the serosal side to that in the mucosal side was used to validate the viability of the everted rat gut sacs.

[9] = Middle concentration QC samples

In the case of `C[C@H]1O[C@@H](O[C@H]2[C@@H](O)C[C@H](O[C@H]3[C@@H](O)C[C@H](O[C@H]4CC[C@@]5(C)[C@H](CC[C@@H]6[C@@H]5C[C@@H](O)[C@]5(C)[C@@H](C7=CC(=O)OC7)CC[C@]65O)C4)O[C@@H]3C)O[C@@H]2C)C[C@H](O)[C@@H]1O` [digoxin, reference compound], the “Stability RSD%” value ([1]; High concentration QC samples) is reported as 1.336%, the “Stability RSD%” value ([1]; Low concentration QC samples) is reported as 2.036% and the “Stability RSD%” value [1, 9] is reported as 4.913%. For the same compound, the “Stability of QC samples” value [1] was “stable for 48 h” and the Solubility in solvents [2] was “only could be dissolved in dimethyl sulfoxide (DMSO) among the tested solvents”.

For `CCCCC[C@H](O)CC(=O)CCc1ccc(O)c(OC)c1` [6-gingerol], the “Effect on digoxin content in gut sacs” value (P-glycoprotein [3]; co-incubated with digoxin, every gut sac, Fig 7, Fig 9) was “decreased”, the “Effect on P-glycoprotein (inducer / revulsant)” value (P-glycoprotein [3]; deduced from decreased digoxin level in rat gut sacs) was “potential revulsant of P-gp” and the “Effect on the level (Papp) of aconitine in the rat gut sacs” value (everted rat gut sacs [4]; added to high aconitine concentration, all four gut sacs) was “P2 value is smaller than the P0 value in each gut sac”.

For `CCN1C[C@]2(COC)[C@H](O)C[C@H](OC)[C@@]34[C@@H]5C[C@@]6(O)[C@H](OC(=O)c7ccccc7)[C@@H]5[C@@](OC(C)=O)([C@@H]([C@H](OC)[C@H]23)[C@@H]14)[C@@H](O)[C@@H]6OC` [aconitine], the P-glycoprotein substrate status (P-glycoprotein [5]) was “potential substrate of P-glycoprotein”, the “Fitting equation (zero-level; slope = absorption rate constant ka)” value (everted rat gut sacs [6]; colon, aconitine 75 ng/mL) was “Q = 0.01937t” and the “Fitting equation (zero-level; slope = absorption rate constant ka)” value (everted rat gut sacs [6]; colon, aconitine 750 ng/mL) was “Q = 0.1302t”. For the same compound, the “Fitting equation (zero-level; slope = absorption rate constant ka)” value (everted rat gut sacs [6]; colon, aconitine 7500 ng/mL) was “Q = 2.000t”, the “Fitting equation (zero-level; slope = absorption rate constant ka)” value (everted rat gut sacs [6]; duodenum, aconitine 75 ng/mL) was “Q = 0.02546t” and the “Fitting equation (zero-level; slope = absorption rate constant ka)” value (everted rat gut sacs [6]; duodenum, aconitine 750 ng/mL) was “Q = 0.05406t”. The “Fitting equation (zero-level; slope = absorption rate constant ka)” value (everted rat gut sacs [6]; duodenum, aconitine 7500 ng/mL) was “Q = 3.528t”, the “Fitting equation (zero-level; slope = absorption rate constant ka)” value (everted rat gut sacs [6]; ileum, aconitine 75 ng/mL) was “Q = 0.01294t” and the “Fitting equation (zero-level; slope = absorption rate constant ka)” value (everted rat gut sacs [6]; ileum, aconitine 750 ng/mL) was “Q = 0.2906t”. The “Fitting equation (zero-level; slope = absorption rate constant ka)” value (everted rat gut sacs [6]; ileum, aconitine 7500 ng/mL) was “Q = 2.529t”, the “Fitting equation (zero-level; slope = absorption rate constant ka)” value (everted rat gut sacs [6]; jejunum, aconitine 75 ng/mL) was “Q = 0.02977t” and the “Fitting equation (zero-level; slope = absorption rate constant ka)” value (everted rat gut sacs [6]; jejunum, aconitine 750 ng/mL) was “Q = 0.2028t”. For the same compound, the “Fitting equation (zero-level; slope = absorption rate constant ka)” value (everted rat gut sacs [6]; jejunum, aconitine 7500 ng/mL) was “Q = 3.2531t”, the “Stability RSD%” value ([1]; High concentration QC samples) was 10.04% and the “Stability RSD%” value ([1]; Low concentration QC samples) was 2.448%. For the same compound, the “Stability RSD%” value [1, 9] was 11.72%, the “Stability of QC samples” value [1] was “stable for 48 h” and the “P-glycoprotein substrate / inhibitor status” value (P-glycoprotein [7]) was “both a substrate and an inhibitor of P-glycoprotein”. The “ER(P2/P0)” value (everted rat gut sacs [4]; colon) was 0.4363, the “ER(P1/P0)” value (everted rat gut sacs [4]; colon) was 0.6695 and the “ER(P2/P0)” value (everted rat gut sacs [4]; duodenum) was 0.3602. For the same compound, the “ER(P1/P0)” value (everted rat gut sacs [4]; duodenum) was 0.2703, the “ER(P2/P0)” value (everted rat gut sacs [4]; ileum) was 0.3464 and the “ER(P1/P0)” value (everted rat gut sacs [4]; ileum) was 0.3615. The “ER(P2/P0)” value (everted rat gut sacs [4]; jejunum) was 0.3979, the “ER(P1/P0)” value (everted rat gut sacs [4]; jejunum) was 0.3942 and the “Toxicity to gut sac tissue (glucose serosal/mucosal ratio)” value (everted rat gut sacs [8]) was “did not induce toxicity in the gut sac tissue”. The Solubility in solvents [2] was “able to be dissolved in methanol”.

Source: PMC4433269 (PLoS ONE, 2015)
